Source: US6830310B2, “Detectable markers in cationic polymeric fixers” (Hewlett-Packard Development Company, L.P., priority 2002, dated 2004)

What was measured:
[1] = Solubility of indicator in polymonoguanadine fixer; settings: for Solubility @ 0.1%: 0.1% in 4 wt % polymonoguanadine fixer; for Solubility @ 0.01 %: 0.01% in 4 wt % polymonoguanadine fixer
Description: Fixer solutions were made by mixing a water based fixer containing a polymonoguanadine cationic polymer with an IR or UV absorber indicator.
2) The solubility is based on the solubility of the compound in a 4 wt % polymonoguanadine fixer.

[2] = Color of the fixer solution in the presence of the compound; assay type: physicochemical
Description: 3) “Color” refers to the color of the fixer solution in the presence of the compound.

For `CN(C)c1ccc(C=Cc2ccccn2)cc1` [2-[4-(Dimethylamino)styryl]pyridine], the “Solubility @ 0.1%” value [1] was “No” and the Color [2] was “Orange”.
In the case of `CCN(CC)CCc1c(C)c2ccc(O)cc2oc1=O.Cl` [3-[2-(diethylamino)ethyl]-7-hydroxy-4-methylcoumarin hydrochloride], the “Solubility @ 0.01 %” value [1] is reported as “Yes”.
In the case of `Nc1ccc(C(=O)O)cc1` [4-Aminobenzoic acid (PABA), 4-Aminobenzoic acid], the “Solubility @ 0.01 %” value [1] is reported as “Yes”, the “Solubility @ 0.1%” value [1] is reported as “Yes” and the Color [2] is reported as “Clear”.
In the case of `Cc1cc(=O)oc2cc(O)c(O)cc12` [4-Methylesculetin], the “Solubility @ 0.01 %” value [1] is reported as “No”, the “Solubility @ 0.1%” value [1] is reported as “No” and the Color [2] is reported as “Clear”.
With `CCN(CC)c1ccc2c(C)cc(=O)oc2c1` [7-Diethylamino-4-methyl coumarin, 7-diethylamino-4-methyl coumarin] the “Solubility @ 0.01 %” value [1] was “Yes” and the “Solubility @ 0.1%” value [1] was “Yes”.
For `Cc1cc(O)nc2cc(N)ccc12` [Carbostyril 124], the “Solubility @ 0.01 %” value [1] was “Yes”, the “Solubility @ 0.1%” value [1] was “No” and the Color [2] was “Clear”.
For `CCN(CC)c1ccc2cc(-c3nc4ccccc4[nH]3)c(=O)oc2c1` [Coumarin 7], the “Solubility @ 0.01 %” value [1] was “No”, the “Solubility @ 0.1%” value [1] was “No” and the Color [2] was “Yellow”.
With `CN(C)c1ccc2c(C(F)(F)F)cc(=O)oc2c1` [Coumarin 152] the “Solubility @ 0.01 %” value [1] was “No” and the “Solubility @ 0.1%” value [1] was “No”.
In the case of `Cc1ccc2nc(-c3ccc(N=NNc4ccc(-c5nc6ccc(C)c(S(=O)(=O)[O-])c6s5)cc4)cc3)sc2c1S(=O)(=O)[O-].[Na+].[Na+]` [Direct Yellow 9], the “Solubility @ 0.1%” value [1] is reported as “No” and the Color [2] is reported as “Yellow”.
For `O=S(=O)([O-])c1cc(Nc2nc(Nc3ccccc3)nc(N(CCO)CCO)n2)ccc1/C=C/c1ccc(Nc2nc(Nc3ccccc3)nc(N(CCO)CCO)n2)cc1S(=O)(=O)[O-].[Na+].[Na+]` [FluorescentBrightner28], the Color [2] was “Clear”.
With `CCN1/C(=C/C=C2\CCC(/C=C/c3sc4ccc(Cl)cc4[n+]3CC)=C2N(c2ccccc2)c2ccccc2)Sc2ccc(Cl)cc21.[O-][Cl+3]([O-])([O-])[O-]` [IR140] the “Solubility @ 0.01 %” value [1] was “No”, the “Solubility @ 0.1%” value [1] was “No” and the Color [2] was “Pale Blue”.
In the case of `CC1(C)C(/C=C/C=C/C=C/C=C2\N(CCCCS(=O)(=O)O)c3ccc4ccccc4c3C2(C)C)=[N+](CCCCS(=O)(=O)[O-])c2ccc3ccccc3c21` [Indocyanine Green], the “Solubility @ 0.01 %” value [1] is reported as “No”, the “Solubility @ 0.1%” value [1] is reported as “No” and the Color [2] is reported as “Green”.
In the case of `Cc1cc2nc3[nH]c(=O)[nH]c(=O)c3nc2cc1C` [Lumichrome], the “Solubility @ 0.01 %” value [1] is reported as “No”, the “Solubility @ 0.1%” value [1] is reported as “No” and the Color [2] is reported as “Clear”.
In the case of `CCOc1ccc2c(ccc(/C=C/c3cccc([N+](=O)[O-])c3)[n+]2C)c1.COS(=O)(=O)[O-]` [Pinacryptol Yellow], the “Solubility @ 0.1%” value [1] is reported as “No” and the Color [2] is reported as “Yellow”.
For `C(=Cc1ccccc1)c1ccccc1` [Stilbene], the “Solubility in the fixer vehicle” value ([1]; fixer vehicle that is mostly water) was “not soluble”.
For `Cc1ccc2c(c1)sc(-c1ccc(N(C)C)cc1)[n+]2C.[Cl-]` [Thioflavin T], the “Solubility @ 0.01 %” value [1] was “Yes”, the “Solubility @ 0.1%” value [1] was “No” and the Color [2] was “Yellow”.
With `CCN=C1C=CC(=C(c2ccc(N(CC)CC)cc2)c2ccc(N(CC)CC)cc2)c2ccccc21.Cl` [Victoria Blue BO] the “Solubility @ 0.01 %” value [1] was “Yes” and the Color [2] was “Blue”.
In the case of `CN1/C(=C/C=C/C=C/C=C/C2=[N+](C)c3ccccc3C2(C)C)C(C)(C)c2ccccc21.[I-]` [tricarbocyanine, 1,1′,3,3,3′,3′-Hexamethylindotricarbocyanine iodide], the “Solubility in polymonoguanadine thermal inkjet fixer” value ([1]; 750 ppm) is reported as “not soluble” and the “Solubility (general statement)” value ([1]; in water / fixer) is reported as “only limited solubility”.
For Variamine Blue, the “Solubility @ 0.01 %” value [1] was “Yes”, the “Solubility @ 0.1%” value [1] was “Yes” and the Color [2] was “Yellow”.
